Earlier results in patent publication US7642235B2, “Macrocyclic peptides active against the hepatitis C virus” (Boehringer Ingelheim International GmbH, priority 2003, dated 2010).

Test system: hepatitis C virus
Conditions: two day clinical trial; Nature (2003) 426, p.186-189

COc1ccc2c(O[C@@H]3C[C@H]4C(=O)N[C@]5(C(=O)O)C[C@H]5/C=C\CCCCC[C@H](NC(=O)OC5CCCC5)C(=O)N4C3)cc(-c3csc(NC(C)C)n3)nc2c1 [BILN 2061]
viral loads in patients infected with the hepatitis C virus: effective in rapidly reducing viral loads
